Assay results published in US20170071976A1, “PHARMACEUTICAL SOLUTION HAVING ANTI-TUMOR EFFECT-ENHANCING AND TOXICITY-REDUCING EFFECT, AND PHARMACEUTICAL COMPOSITION COMPRISING SAME” (priority 2014, published 2017).

Columns and labels:
Experiment in all cases: MTT assay: in vitro inhibition of growth by deuterium oxide
Format in all cases: cell-based, human
[1] = tested on: 5637 bladder cancer cell line
Procedure: (§1) Studies of in vitro inhibition of growth of human tumor cells by deuterium oxide, by the MTT (3-(4,5-dimethylthiazol-2-yl)-2,5-diphenyltetrazolium bromide) assay
(§2) 1. A bottle of cells that had been cultured for 3 to 4 days and were in the exponential phase was taken, a suitable amount of 0.25% Trypsin-EDTA solution was added thereto to detach the cells from the wall, and the cells were suspended in 10 ml RPMI 1640 medium containing 10% FBS. 2. The cells were counted on a hemocytometer, and generally viable cells should be not less than 97%. 3. The cell suspension was diluted with a complete medium to prepare a suspension containing 1×10^4 cells/ml. 4. To each well of a 12-well culture plate, 300 μl cell suspension was added. The addition of cells should be finished within 4 hours. The plate was placed in an incubator at 37° C. and 5% CO2 for 24 hours. 5. Powdery RPMI Medium 1640 (Gibco, USA, Cat#: 31800-022) was dissolved in deuterium oxide (provided by Cambridge Isotope Laboratories, Inc. (US)) to prepare a cell culture medium (unless particularly specified, all culture media used in the Examples hereinafter were prepared from powdery RPMI Medium 1640 and deuterium oxide) at a concentration shown in Table 1, which was added into the cell culture plate. 6. The cell culture plate was incubated for 3 days in an incubator at 37° C., 5% CO2 and 100% humidity. 7. A solution of 1 mg/ml MTT was prepared in a serum-free RPMI1640 medium, added to the plate at 200 μl/well, and incubated at 37° C. for 4 hours, to allow MTT to be reduced to formazan. 8. The supernatant was removed by pipetting, 200 μl DMSO was added to dissolve formazan, and the solution was well mixed on a platform shaker. 9. Absorbance of each well was measured on an ELISA reader with a detection wavelength of 570 nm and a reference wavelength of 450 nm. 10. The assay was repeated one more time.
(§3) Calculation of results: Inhibition of growth of tumor cells by deuterium oxide was calculated using tumor cells treated with sodium chloride physiological solution as a control group. Inhibition of cell growth was plotted against amounts of deuterium oxide to obtain a dose response curve, from which the half maximal inhibitory concentration (IC50) of deuterium oxide was derived.
(§4) Inhibition of tumor cell growth (%)=(1−OD test/OD control)×100%

[2] = tested on: ASPC-1 pancreatic cancer cell line
Procedure: as §1, §2, §3, §4

[3] = tested on: CFPAC-1 pancreatic cancer cell line
Procedure: as §1, §2, §3, §4

[4] = tested on: HCT-116 colon cancer cell line
Procedure: as §1, §2, §3, §4

[5] = tested on: MCF-7 breast cancer cell line
Procedure: as §1, §2, §3, §4

[6] = tested on: NCI-1975 lung cancer cell line
Procedure: as §1, §2, §3, §4

[7] = tested on: NCI-H460 lung cancer cell line
Procedure: as §1, §2, §3, §4

[8] = tested on: SKOV3 ovarian cancer cell line
Procedure: as §1, §2, §3, §4

SMILES: [2H]O[2H] [Deuterium oxide]
- Inhibition of growth (%) ([1]; deuterium oxide 1.2% (v/v)): 0.84%
- Inhibition of growth (%) ([1]; deuterium oxide 2.5% (v/v)): −3.09%
- Inhibition of growth (%) ([1]; deuterium oxide 5% (v/v)): 10.44%
- Inhibition of growth (%) ([1]; deuterium oxide 10% (v/v)): 16.15%
- Inhibition of growth (%) ([1]; deuterium oxide 20% (v/v)): 25.56%
- Inhibition of growth (%) ([1]; deuterium oxide 30% (v/v)): 36.69%
- Inhibition of growth (%) ([1]; deuterium oxide 40% (v/v)): 44.32%
- Inhibition of growth (%) ([1]; deuterium oxide 50% (v/v)): 52.11%
- Inhibition of growth (%) ([1]; deuterium oxide 60% (v/v)): 59.76%
- Inhibition of growth (%) ([1]; deuterium oxide 70% (v/v)): 74.86%
- Inhibition of growth (%) ([1]; deuterium oxide 80% (v/v)): 88.43%
- IC10 ([1]; expressed in v/v %): 4.46%
- IC50 ([1]; expressed in v/v %): 59.08%
- Inhibition of growth (%) ([2]; deuterium oxide 1.2% (v/v)): 0.64%
- Inhibition of growth (%) ([2]; deuterium oxide 2.5% (v/v)): 6.35%
- Inhibition of growth (%) ([2]; deuterium oxide 5% (v/v)): −0.20%
- Inhibition of growth (%) ([2]; deuterium oxide 10% (v/v)): −4.88%
- Inhibition of growth (%) ([2]; deuterium oxide 20% (v/v)): −7.26%
- Inhibition of growth (%) ([2]; deuterium oxide 30% (v/v)): 9.70%
- Inhibition of growth (%) ([2]; deuterium oxide 40% (v/v)): 23.99%
- Inhibition of growth (%) ([2]; deuterium oxide 50% (v/v)): 44.14%
- Inhibition of growth (%) ([2]; deuterium oxide 60% (v/v)): 52.22%
- Inhibition of growth (%) ([2]; deuterium oxide 70% (v/v)): 70.14%
- Inhibition of growth (%) ([2]; deuterium oxide 80% (v/v)): 85.83%
- IC10 ([2]; expressed in v/v %): 11.80%
- IC50 ([2]; expressed in v/v %): 57.00%
- Inhibition of growth (%) ([3]; deuterium oxide 1.2% (v/v)): 6.82%
- Inhibition of growth (%) ([3]; deuterium oxide 2.5% (v/v)): 14.05%
- Inhibition of growth (%) ([3]; deuterium oxide 5% (v/v)): 13.42%
- Inhibition of growth (%) ([3]; deuterium oxide 10% (v/v)): 10.75%
- Inhibition of growth (%) ([3]; deuterium oxide 20% (v/v)): 14.84%
- Inhibition of growth (%) ([3]; deuterium oxide 30% (v/v)): 26.16%
- Inhibition of growth (%) ([3]; deuterium oxide 40% (v/v)): 33.67%
- Inhibition of growth (%) ([3]; deuterium oxide 50% (v/v)): 45.30%
- Inhibition of growth (%) ([3]; deuterium oxide 60% (v/v)): 61.42%
- Inhibition of growth (%) ([3]; deuterium oxide 70% (v/v)): 77.94%
- Inhibition of growth (%) ([3]; deuterium oxide 80% (v/v)): 91.85%
- IC10 ([3]; expressed in v/v %): 3.20%
- IC50 ([3]; expressed in v/v %): 59.43%
- Inhibition of growth (%) ([4]; deuterium oxide 1.2% (v/v)): 11.81%
- Inhibition of growth (%) ([4]; deuterium oxide 2.5% (v/v)): 31.55%
- Inhibition of growth (%) ([4]; deuterium oxide 5% (v/v)): 21.64%
- Inhibition of growth (%) ([4]; deuterium oxide 10% (v/v)): 18.58%
- Inhibition of growth (%) ([4]; deuterium oxide 20% (v/v)): 23.32%
- Inhibition of growth (%) ([4]; deuterium oxide 30% (v/v)): 30.21%
- Inhibition of growth (%) ([4]; deuterium oxide 40% (v/v)): 37.43%
- Inhibition of growth (%) ([4]; deuterium oxide 50% (v/v)): 48.43%
- Inhibition of growth (%) ([4]; deuterium oxide 60% (v/v)): 66.31%
- Inhibition of growth (%) ([4]; deuterium oxide 70% (v/v)): 70.42%
- Inhibition of growth (%) ([4]; deuterium oxide 80% (v/v)): 94.62%
- IC10 ([4]; expressed in v/v %): 0.25%
- IC50 ([4]; expressed in v/v %): 51.13%
- Inhibition of growth (%) ([5]; deuterium oxide 1.2% (v/v)): 9.78%
- Inhibition of growth (%) ([5]; deuterium oxide 2.5% (v/v)): 11.04%
- Inhibition of growth (%) ([5]; deuterium oxide 5% (v/v)): 15.71%
- Inhibition of growth (%) ([5]; deuterium oxide 10% (v/v)): 22.47%
- Inhibition of growth (%) ([5]; deuterium oxide 20% (v/v)): 31.60%
- Inhibition of growth (%) ([5]; deuterium oxide 30% (v/v)): 40.38%
- Inhibition of growth (%) ([5]; deuterium oxide 40% (v/v)): 52.45%
- Inhibition of growth (%) ([5]; deuterium oxide 50% (v/v)): 63.22%
- Inhibition of growth (%) ([5]; deuterium oxide 60% (v/v)): 86.41%
- Inhibition of growth (%) ([5]; deuterium oxide 70% (v/v)): 89.06%
- Inhibition of growth (%) ([5]; deuterium oxide 80% (v/v)): 98.08%
- IC10 ([5]; expressed in v/v %): 3.28%
- IC50 ([5]; expressed in v/v %): 61.29%
- Inhibition of growth (%) ([6]; deuterium oxide 1.2% (v/v)): 0.84%
- Inhibition of growth (%) ([6]; deuterium oxide 2.5% (v/v)): −8.29%
- Inhibition of growth (%) ([6]; deuterium oxide 5% (v/v)): −7.44%
- Inhibition of growth (%) ([6]; deuterium oxide 10% (v/v)): −4.95%
- Inhibition of growth (%) ([6]; deuterium oxide 20% (v/v)): 5.60%
- Inhibition of growth (%) ([6]; deuterium oxide 30% (v/v)): 6.66%
- Inhibition of growth (%) ([6]; deuterium oxide 40% (v/v)): 24.03%
- Inhibition of growth (%) ([6]; deuterium oxide 50% (v/v)): 39.10%
- Inhibition of growth (%) ([6]; deuterium oxide 60% (v/v)): 51.93%
- Inhibition of growth (%) ([6]; deuterium oxide 70% (v/v)): 79.65%
- Inhibition of growth (%) ([6]; deuterium oxide 80% (v/v)): 87.23%
- IC10 ([6]; expressed in v/v %): 27.00%
- IC50 ([6]; expressed in v/v %): 62.61%
- Inhibition of growth (%) ([7]; deuterium oxide 1.2% (v/v)): 1.15%
- Inhibition of growth (%) ([7]; deuterium oxide 2.5% (v/v)): 9.40%
- Inhibition of growth (%) ([7]; deuterium oxide 5% (v/v)): 11.27%
- Inhibition of growth (%) ([7]; deuterium oxide 10% (v/v)): 9.47%
- Inhibition of growth (%) ([7]; deuterium oxide 20% (v/v)): 11.60%
- Inhibition of growth (%) ([7]; deuterium oxide 30% (v/v)): 30.58%
- Inhibition of growth (%) ([7]; deuterium oxide 40% (v/v)): 42.05%
- Inhibition of growth (%) ([7]; deuterium oxide 50% (v/v)): 53.09%
- Inhibition of growth (%) ([7]; deuterium oxide 60% (v/v)): 69.50%
- Inhibition of growth (%) ([7]; deuterium oxide 70% (v/v)): 82.33%
- Inhibition of growth (%) ([7]; deuterium oxide 80% (v/v)): 98.06%
- IC10 ([7]; expressed in v/v %): 5.60%
- IC50 ([7]; expressed in v/v %): 48.75%
- Inhibition of growth (%) ([8]; deuterium oxide 1.2% (v/v)): 1.82%
- Inhibition of growth (%) ([8]; deuterium oxide 2.5% (v/v)): 7.35%
- Inhibition of growth (%) ([8]; deuterium oxide 5% (v/v)): 8.33%
- Inhibition of growth (%) ([8]; deuterium oxide 10% (v/v)): 9.65%
- Inhibition of growth (%) ([8]; deuterium oxide 20% (v/v)): 12.64%
- Inhibition of growth (%) ([8]; deuterium oxide 30% (v/v)): 16.69%
- Inhibition of growth (%) ([8]; deuterium oxide 40% (v/v)): 32.76%
- Inhibition of growth (%) ([8]; deuterium oxide 50% (v/v)): 41.80%
- Inhibition of growth (%) ([8]; deuterium oxide 60% (v/v)): 59.84%
- Inhibition of growth (%) ([8]; deuterium oxide 70% (v/v)): 74.07%
- Inhibition of growth (%) ([8]; deuterium oxide 80% (v/v)): 90.42%
